Eight compounds from US6984649B1, “Pyridine derivatives” (Bayer Aktiengesellschaft, priority 2000, dated 2006) can be followed below.

Structures are written as SMILES. Structures can show the parent of a compound that is named as a salt.

One test deals with T1, human IKK-β (Homo sapiens, UniProt O14920).
T1 construct: A cDNA fragment encoding human IKK-β open reading frame was generated by PCR; His tag (from pcDNA3.1/His C); made in house; host or cells: Sf21 insect cells (baculovirus); substrate made in E. coli
T1 sequence (O14920 1-756): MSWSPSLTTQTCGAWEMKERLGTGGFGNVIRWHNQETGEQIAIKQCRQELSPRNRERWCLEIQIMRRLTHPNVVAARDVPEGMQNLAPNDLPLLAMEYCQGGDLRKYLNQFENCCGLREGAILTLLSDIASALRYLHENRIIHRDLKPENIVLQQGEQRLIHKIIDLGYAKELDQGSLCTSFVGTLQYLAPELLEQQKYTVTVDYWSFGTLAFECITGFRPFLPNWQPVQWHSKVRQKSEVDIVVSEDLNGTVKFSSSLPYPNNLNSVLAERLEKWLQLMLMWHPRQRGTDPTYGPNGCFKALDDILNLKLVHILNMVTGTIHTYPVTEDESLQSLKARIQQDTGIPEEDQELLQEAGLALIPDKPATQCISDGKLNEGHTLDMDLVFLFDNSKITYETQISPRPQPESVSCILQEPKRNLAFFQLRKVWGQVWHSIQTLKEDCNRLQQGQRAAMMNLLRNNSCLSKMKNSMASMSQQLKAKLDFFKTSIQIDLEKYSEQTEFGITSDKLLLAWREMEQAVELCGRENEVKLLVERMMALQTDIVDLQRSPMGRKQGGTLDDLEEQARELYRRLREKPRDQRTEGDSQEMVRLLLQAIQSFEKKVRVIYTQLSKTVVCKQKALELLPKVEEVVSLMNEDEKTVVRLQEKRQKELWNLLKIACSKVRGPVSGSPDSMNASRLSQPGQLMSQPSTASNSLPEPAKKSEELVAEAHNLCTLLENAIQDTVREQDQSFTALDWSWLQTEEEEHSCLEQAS
Kind of test: IKK-β kinase inhibitory assay. The class given is biochemical. As to conditions: compounds as yielded by solid phase synthesis, purity about 40 to 90%, read-out: In vitro activity grade (In vitro IC50). From the text:
[IKK-β Kinase Inhibitory Assay]
(1) Preparation of IKK-β Kinase Protein.
• A cDNA fragment encoding human IKK-β open reading frame was generated by PCR with the use of a pair of primers designed from the published sequence (Woronicz J D et al. (1997) Science 278, 866-869). A template was obtained from Quickclone cDNA (Clontech) using Elongase™ Amplification kit (Life Technologies). The DNA fragments generated by PCR were gel-purified and subcloned into pBluescript. The cDNA fragment cloned in pBluescript was inserted into pcDNA3.1/His C KpnI/NotI, and transferred into pVL1393 SmaI/XbaI (Pharmingen) to construct a baculovirus transfer vector. Then the vector, together with the linearized baculovirus (BaculoGold™, Pharmingen) was used to transfect Sf21 cells (Invitrogen, San Diego, Calif.). Generated recombinant baculovirus was cloned and amplified in Sf21 cells, grown in TNM-FH insect cell medium (Life Technologies, Inc.) supplemented with 10% FCS, […] Gentamycin, 0.1% Pluronic F-68 (Life Technologies, Inc.) as suspension culture (200 ml in 1 L Erlenmeyer flask; 27° C.; 130 rpm). Sf21 cells were infected with this amplified virus with a multiplicity of infection of 5 following standard protocols (Crossen R, Gruenwald S (1997) Baculovirus Expression Vector System Instruction Manual, Pharmingen Corporation) and harvested 48 hrs later. The cells were lysed to obtain the produced chimeric protein of IKK-β kinase fused by histidine (His-tagged IKK-beta). (2) The Preparation of Purified GST-IκBα Fusion Proteins • An expression vector containing the nucleotide sequence encoding fusion protein of GST with amino acid residues 1 to 54 of IκBα under the control of an IPTG-inducible promoter was constructed. The expression vector was introduced in E. coli and the transformant was cultured and lysed to obtain a GST-IκBα fusion protein. Then the resulting GST-IκBα fusion protein was purified and biotinated for kinase assay. (3) The Measurement of IKK-β Kinase Activity • The 96-well format kinase assay of IKK-β were performed to test the inhibitory activity of the compounds of the present invention. First, 5 μl of a test compound was put in the presence of 2.5% dimethyl sulfoxide (DMSO) in each well in a U-bottomed 96-well plate (Falcon). For control wells of background (BG) and total phosphorylation (TP), 5 μl of 2.5% DMSO was put. Recombinant IKK-β (final 0.6 μg/ml) and bio-GST-IκBα (1-54) (final 0.2 μM) were diluted in 25 μl of 2×kinase buffer β (40 mM Tris-HCl, pH 7.6, 40 mM MgCl2, 40 mM β-glycerophosphate, 40 mM p-nitrophenylphosphate, 2 mM EDTA, 40 mM creatine phosphate, 2 mM DTT, 2 mM Na3VO4, 0.2 mg/ml BSA and 0.8 mM phenylmethylsulfonyl fluoride) and transferred to the 96-well plate. Bio-GST-IκBα (1-54) in 25 μl of 2×kinase buffer β without IKK-β was transferred to BG wells. Then 20 μl of 12.5 μM ATP, 62.5 μCi/ml [γ-^33P] ATP (Amersham Pharmacia Biotech) was added and the resulting mixture was incubated for 2 hrs at room temperature. The kinase reactions were terminated by the addition of 150 μl of termination buffer (100 mM EDTA, 1 mg/ml BSA, 0.2 mg NaN3). One hundred and fifty μl of the sample were transferred to a streptavidin-coated, white MTP (Steffens Biotechniche Analysen GmbH #08114E14.FWD) to capture the biotinylated substrates. After 1 hr of incubation, non-bound radioactivity was eliminated by washing the wells five times with 300 μl of washing buffer including 0.9% NaCl and 0.1% (w/v) Tween-20 with the use of a MW-96 plate washer (BioTec). The bound radioactivity was determined after the addition of 170 μl MicroScint-PS scintillation cocktail (Packard) using a TopCount scintillation counter. [Syk Tyrosine Kinase Inhibitory Assay for Selectivity] (1) Preparation of Syk Protein • A cDNA fragment encoding human Syk openreading frame was cloned from total RNA of human Burkitt's lymphoma B cell lines, Raji (American Type Culture Collection), with the use of RT-PCR method.
In general, IC50 refers to the concentration that gives 50% inhibition. On to `N#Cc1c(C2CNc3ccccc3C2)cc(-c2ccccc2O)nc1N` (centres unmarked) [Example 1-16], for which the IC50 was over 10000 nM. Turning to `N#Cc1c([C@@H]2Cc3ccccc3CN2)cc(-c2ccccc2O)nc1N` [Example 1-27], the IC50 was 2000 to 10000 nM.

Turning to `CCCCOc1cccc(O)c1-c1cc(C2CCNCC2)c(C#N)c(N)n1` [Example 2-72], the concentration for half-maximal inhibition (IC50) is under 500 nM. In the case of `N#Cc1c(C2CCCNC2)cc(-c2ccccc2O)nc1N1CCNCC1` (centres unmarked) [Example 4-5, 6-(2-hydroxyphenyl)-2-(1-piperazinyl)-4-(3-piperidinyl)nicotinonitrile dihydrochloride], the half-maximal inhibitory concentration (IC50) is over 10000 nM. The same measure, in the same setting: the result for `Cn1c(=O)[nH]c2nc(-c3c(O)cccc3OCC3CC3)cc(C3CCCNC3)c2c1=O` (centres unmarked) [Example 10-2, 7-(2-Cyclopropylmethoxy-6-hydroxy-phenyl)-3-methyl-5-piperidin-3-yl-1H-pyrido[2,3-d]pyrimidine-2,4-dione] reads under 500 nM. On the same count and under the same terms, the result for `N#Cc1c(N2CCCCC2)cc(-c2ccccc2O)nc1N` [Example 34-05] reads over 10000 nM. Still for that read-out and setting: the same measure for `N#Cc1c(NCCN)cc(-c2c(O)cccc2OCC2CC2)nc1N` [Example 34-14]: under 500 nM.

In the next test the test system is A549 human lung epithelium cell line. Kind of test: RANTES production in response to TNF-α from A549 cells. As to conditions: Homo sapiens, A549, A549 cells, 100 ng/ml TNF-α, read-out: Cellular activity grade (A549) (Cellular IC50). The class given is cell-based. As to the method: [The Measurement of RANTES Production in Response to TNF-α from A549 Cells]
(1) Preparation of A549 Cells
• The A549 human lung epithelium cell line (ATCC […]) was maintained in Dulbecco's modified Eagle's medium (D-MEM, Nikken Biomedical Institute) supplemented with 10% FCS (Gibco), 100 U/ml penicillin, 100 μg/ml streptomycin, and 2 mM glutamine (culture medium). Forty thousand (4×10^4) cells (80 μl/well) were seeded in each well of 96 well flat-bottom tissue culture plate (Falcon #3072). The plate was allowed to stand for 2 hrs, thus the cells were adhered to the bottom of each well. To the each well was added 10 μl vehicle (1% DMSO), serial dilutions of test compounds in 1% DMSO, or 5 nM Dexamethasone in 1% DMSO as a reference. The mixture (90 μl/well) was incubated for 1 hr at 37° C. After 1 hr, 1 μg/ml TNF-α (10 μl) in culture medium was added to the mixture to obtain 100 μl of reaction mixture. The reaction mixture was cultured for 24 hrs to stimulate the cells with 100 ng/ml TNF-α. Cells with vehicle without TNF-α stimulation were also prepared. (2) Measurement of RANTES Production • Then the concentration of RANTES released from the cells in the supernatants of each well was determined using a quantitative sandwich enzyme immunoassay technique. First, 2 μg/ml mouse anti-huRANTES mAb (R&D Systems, #mAb678) in PBS buffer (pH 7.4, 100 μl) was put in each well of 96-well NUNC fluoro plate (Nalge Nunc, New York USA) (Final 200 ng/well) and the plate was allowed to stand for overnight at 4° C. to be coated by the antibody. Each well of the plate was then washed with 350 μl wash buffer (0.05% Tween-20, 0.85% NaCl, and 25 mM Tris/HCl pH7.4) for three times. Blocking buffer containing 1% BSA (Sigma 99% pure, 100 g), 5% sucrose (Nacalai tesque, 99% pure, 500 g), and 0.02% azide (Nacalai tesque, 100%, 500 g) were added (200 μl) to each well and then the plate was allowed to stand for 4 hours to stabilize the coated antibody. Next, 50 μl supernatants of cell culture prepared in (1) above were put in each well of the 96-well NUNC fluoro plate with coated antibody. Recombinant Human RANTES (Pepro Tech, Inc. #300-06) was used as the standard for the determination of RANTES production (linear range between 1 and 10 ng/ml). Eu-labelled mouse anti-huRANES mAb (60 ng/ml: R&D Systems, #mAb278) in PBS supplemented by 1% BSA and 0.05% Tween 20 was added (50 μl) to each well. The reaction mixtures were incubated at room temperature for 4 hrs. After washing with wash buffer (0.05% Tween-20, 0.85% NaCl, and 25 mM Tris/HCl pH7.4, 350 μl/well) for 5 times with the use of a Sera Washer (Bio-Tech, #MW-96R), the enhancement solution (DELFIA, #1244-405, 100 μl/well) was added to each well. The plate was incubated for 10 minutes at room temperature with moderate shaking. Fluorescent intensity was measured using a DELFIA fluorimeter (Wallac). Excitation was performed at 340 nm and emission was measured at 615 nm. [The Measurement of TNF-α Production in Response to LPS from Peripheral Blood Mononuclear Cells (PBMC)] (1) Preparation of PBMC • Human PBMC were prepared by first obtaining blood from healthy donors and isolating the cells from the blood. The isolation was done by Ficoll gradient-centrifugation method using Ficoll Pacque (Pharmacia #17-1440-02). Within three hours from donation, the isolated PBMC was used. After three times washing with PBS, PBMC were resuspended with RPMI 1640 (Nikken BioMedical Institute) supplemented with 10% FCS (Gibco), 100 U/ml penicillin, 100 μg/ml streptomycin, and 2 mM glutamine (culture medium). The cells (1×10^5 in 150 μL/well) were seeded in each well of 96 well flat-bottom tissue culture plate (Falcon #3072). To the each well was added 20 μl vehicle (1% DMSO), serial dilutions of test compounds in 1% DMSO, or 250 nM Dexamethasone in 1% DMSO as a reference. The mixture (170 μl/well) was incubated for 1 hr at 37° C. After 1 hr, 20 ng/ml LPS (30 μl) in culture medium was added to the mixture to obtain 200 μl of reaction mixture. […]
With `O=C1Nc2nc(-c3c(O)cccc3OCC3CC3)cc(C3CCCNC3)c2CO1` (centres unmarked) [Example 18-1, 7-[2-(cyclopropylmethoxy)-6-hydroxyphenyl]-5-(3-piperidinyl)-1,4-dihydro-2H-pyrido[2,3-d][1,3]oxazin-2-one hydrochloride], the half-inhibitory concentration (IC50) was under 1000 nM.
